Assay results as given in patent publication US20240123022A1, “A STABLE ANTI-ANGIOGENIC AND ANTI-INFLAMMATORY PHARMACEUTICAL FORMULATION AND PHARMACEUTICAL COMBINATION FOR TREATMENT AND PREVENTION OF PSORIASIS” (priority 2021, published 2024).

Assays:
HaCaT cell lines = assay: Cell cycle assay (Sub-G0/G1, pro-apoptotic effect); format: cell-based, human; details: 48 h, vs untreated
Excerpt: HaCaT cell lines were used as test system since it is widely used for studying anti-psoriatic effects. Curcumin dissolved in DMSO was taken as positive control for validation purpose. Apoptotic effect on HaCaT cell lines was detected by flow cytometry analysis.

Caspase 3 = assay: Caspase-3 activation assay in HaCaT cells; format: cell-based, human; details: 100 to 5000 μg/mL, 24 h and 48 h, vs untreated cells
Excerpt: The study aimed to determine action of IS217 on the death mediator Caspase 3 which acts as dominant regulator during cell death induction. HaCaT cells were used as test system and in house validation assay was done by using Anthralin dissolved in DMSO (positive control).

[1] = test system: P-VEGFR-2, VEGFR-2, NRP-1, Akt, p-NRP1, P-Akt, ERK1/2, P-ERK1/2, p-38, P-p-38; assay: Biomarker estimation by western blotting; format: cell-based; details: 500 and 1000 μg/ml, western blot
Excerpt: Targets screened are as follows: P-VEGFR-1, P-VEGFR-2, P-VEGFR-3, VEGFR-1, VEGFR-2, VEGFR-3, NRP-1, MPO, Akt, PAkt, ERK1/2, P-ERK1/2, MAPK, p-38, P-p-38, p-NRP1 and GAPDH.

[2] = test system: Imiquimod (IMQ) induced psoriasis model using Balb/c mice; assay: IMQ induced psoriasis model, routes of administration (SC, IM, IV, IP); format: in vivo; details: for TNF-α reduced to / reduction in IL-23: ear homogenate
Protocol: The study was conducted in healthy, adult female Balb/c mice. All the animals were acclimatized to laboratory condition prior to experiment initiation.
Animals were randomized into 10 groups containing 6 animals each group, based on their body weight. Approximately 63 mg of IMQ cream (5%) (containing 3.125 mg of IMQ) was weighed and applied topically each on dorsal area (shaved back) and right ear of mice for 8 days in group 3-10. Groups 1 and 2 were served as controls and were treated with appropriate vehicle. Later groups 1 and 2 were merged for better calculation purpose.
Body weight, ear thickness and dorsal skin thickness was measured daily using digital caliper. Erythema index was recorded by mexameter and clinical scoring was also done daily for dorsal psoriatic area.
On day 9, animals were anesthetized for blood collection followed by euthanasia by C02 asphyxiation as per in-house approved standard protocol.
About 4 mm ear punch biopsy was collected, weighed and fixed in about 10% neutral buffer formalin for histopathological analysis (via H and E staining). Remaining ear was excised and stored at about −80° C. for inflammatory cytokine analysis. Dorsal skin was also collected, and half was kept in formalin. Spleen was also collected and weighed and kept in formalin.
In this study three different routes i.e., SC, IM and IV at different doses ranging from 0.3, 0.6 and 1.2 mg/kg were used to see dose response curve, the results were as follows: […]

[3] = test system: IMQ induced psoriasis model using Balb/c mice; format: in vivo
Protocol: The experimental procedure and doses and route of administration are same as IMQ model. Test item IS217 was administered subcutaneously to diseased animals at different dose levels of 0.15 mg/kg, 0.30 mg/kg, 0.60 mg/kg, 1.2 mg/kg, 2.4 mg/kg and 4.8 mg/kg.

[4] = test system: TPA induced ear inflammation model in C57BL/6 mice; format: in vivo
Excerpt: The experimental procedure and doses and route of administration are same as IMQ model.

[5] = Stability of IS217 1% cream, long term 30° C. ± 2° C./65% RH; format: physicochemical; details: 24 months at room temperature
Protocol: The purpose of stability testing is to provide evidence on how the quality of a drug product varies with time under the influence of a variety of environmental factors such as temperature, humidity, etc. and to establish a re-test period for the drug substance or a shelf life for the drug product and recommended storage conditions. The study was conducted according to the WHO and schedule-Y guidelines.
The drug product was manufactured by Issar Pharma. Three batches were manufactured at pilot scale level by the same synthetic route as, and using a method of manufacture and procedure that simulates the final process to be used for, production batches. The overall quality of the batches of drug product placed on these stability studies will be representative of the quality of the material to be made on a production scale.
A soft squeezable plastic tube will be used as primary packing material. The tube is a cylindrical, hollow piece with a rounded shape design.
This study has included testing of those attributes of the drug product that are susceptible to change during storage and are likely to influence quality, safety and/or efficacy. The testing was covered, as appropriate, the physical and chemical attributes. […]

[6] = test system: human endothelial cell line (EA.hy926); details: EA.hy926, 1-5000 μg/ml, 72 h
Protocol: Here MTT assay and BioTek Synergy HT multimode reader were used to determine the cell viability in test cells. […] Once within about 72 hours of incubation, re-treatment was done for test items at every 24 hours in 3 additions. 150 μl of DMSO was added to aspirated supernatant and observed at 540 nm using BioTek Synergy HT plate reader.

Protocol for human plasma proteins: Test item at concentration of about 100 μg/ml was incubated with human plasma at 37° C. in water bath for about 1 hour. About 500 μL of test solution was transferred to ultrafiltration devices and centrifuged for about 15 minutes at about 13000 rpm and at 37° C. and analyzed using HPLC method.

H-FAKKFAKKFK-OH [IS217, H-Phe-Ala-Lys-Lys-Phe-Ala-Lys-Lys-Phe-Lys-OH]
increase in pro-apoptotic cells (Sub-G0/G1 population) (HaCaT cell lines; 100 μg/mL): 1.2 fold
increase in pro-apoptotic cells (Sub-G0/G1 population) (HaCaT cell lines; 500 μg/mL): 5.0 fold
increase in pro-apoptotic cells (Sub-G0/G1 population) (HaCaT cell lines; 1000 μg/mL): 6.8 fold
increase in pro-apoptotic cells (Sub-G0/G1 population) (HaCaT cell lines; 5000 μg/mL): 1.1 fold
activation of Caspase 3 (Caspase 3): did not lead to activation
protein levels of P-VEGFR-2, VEGFR-2, NRP-1, Akt, p-NRP1, P-Akt, ERK1/2, P-ERK1/2, p-38, P-p-38 [1]: downregulated
ear biopsy weight ([2]; 0.3 mg/kg SC, day 9, vs other doses and routes): maximum effect
hyperkeratosis, edema, inflammatory cell infiltration and ear thickness in histopathology examination of ear ([2]; 0.3 mg/kg SC, p < 0.01): reduced
TNF-α reduced to ([2]; 0.6 mg/kg): 13.94%
reduction in IL-23 ([2]; 0.6 mg/kg): 49.68%
TNF-α level in ear tissue homogenate ([2]; 1.2 mg/kg SC): partially reduced
TNF-α and IL-23 levels, rete peg proliferation in histopathology examination of ear ([2]; 1.2 mg/kg SC, p < 0.01): dose lowered
absolute ear thickness reduction, maximum inhibition ([2]; 1.2 mg/kg dose): 80.36%
TNF-α reduced to ([2]; 1.2 mg/kg): 24.25%
reduction in IL-23 ([2]; 1.2 mg/kg): 59.85%
reduction of IL-23 levels ([2]; 0.3-1.2 mg/kg SC, by all above observations): prominent dose dependent results
percentage inhibition of ear inflammation, maximum inhibitory activity ([2]; IM route): 59.12%
body weight ([2]; IS217 SC, IM, IV, IP, 8 days): No significant change
IL-17 in ear tissue homogenate ([2]; IV treatment): maximum inhibition
spleen weight reduction ([2]; IV treatment group, not statistically significant): maximum reduction
spleen weight reduction ([2]; SC treatment groups): No effect
IMQ induced hyperkeratosis, edema, Rete Peg proliferation, inflammatory cell infiltration (ear histopathology) ([2]; SC, low dose of 0.3 mg/kg): maximum reduction
cumulative psoriatic score of dorsal area ([2]; any treatment group): No significant reduction
erythema index ([2]; any treatment group): No significant reduction
percentage inhibition of ear inflammation, maximum inhibitory response ([2]; low dose, from day 6): 32.08%
IL-17A and spleen weight ([2]; mouse, in vivo): no trend
inhibition of ear thickness ([3]; 0.3 mg/kg SC): 36.34%
psoriatic score PASI and ear punch biopsy ([3]; IS217 SC 0.15-4.8 mg/kg q.d., 8 days): lowering of
TNF-α level ([3]; SC 0.15-4.8 mg/kg): no trend
ear thickness (life phase), punch biopsy, cumulative psoriatic scoring and spleen weight ([3]; dose level of 0.3 mg/kg SC): maximum effect
Ear homogenate TNF-α, IL-23, MPO ([3]; p < 0.01): MPO reduction
reduction in IL-23 levels in ear tissue homogenate ([4]; 0.60 mg/kg): 42.12%
maximum ear thickness inhibition ([4]; 1.2 mg/kg): 80.36%
MPO levels ([4]; 1.2 mg/kg SC, conclusion of in vivo studies, model not stated): significant reduction
absolute ear thickness ([4]; 1.2 mg/kg-4.8 mg/kg): significant reduction
ear thickness (absolute, histopathology, ear punch biopsy) ([4]; IS217 (all doses) < MTX, p < 0.001): Decreased ear
Ear homogenate ELISA TNF-α, IL-23, IL-6, MPO ([4]; p < 0.01): MPO reduction
stability of drug product (1% cream) [5]: stable
percentage inhibition of FBS induced proliferation of endothelial cells [6]: effective upto 2000 μg/ml only
inhibition of healthy unstimulated cells (CC50 experiment) (HUVEC): no inhibition
inhibition of VEGF stimulated HUVEC cells (HUVEC; VEGF stimulated): dose dependent inhibition
binding affinity to human plasma proteins (human plasma proteins): moderate binding affinity
